Measured values from BigSolDB 2.1.

O=C(O)c1ccccc1
solubility (mole fraction) (in 2-(2-butoxyethoxy)ethanol, 296.15 K): 0.285
solubility (mole fraction) (in 2-(2-butoxyethoxy)ethanol, 305.15 K): 0.304
solubility (mole fraction) (in 2-(2-butoxyethoxy)ethanol, 309.65 K): 0.314
solubility (mole fraction) (in 2-(2-butoxyethoxy)ethanol, 311.15 K): 0.329
solubility (mole fraction) (in 2-(2-butoxyethoxy)ethanol, 317.15 K): 0.356
solubility (mole fraction) (in 2-(2-butoxyethoxy)ethanol, 321.15 K): 0.377
solubility (mole fraction) (in 2-(2-butoxyethoxy)ethanol, 326.15 K): 0.409
solubility (mole fraction) (in 2-(2-butoxyethoxy)ethanol, 329.65 K): 0.431
solubility (mole fraction) (in 2-(2-butoxyethoxy)ethanol, 334.15 K): 0.458
solubility (mole fraction) (in 2-(2-butoxyethoxy)ethanol, 336.15 K): 0.472
solubility (mole fraction) (in DMAc, 288.65 K): 0.469
solubility (mole fraction) (in DMAc, 293.35 K): 0.472
solubility (mole fraction) (in DMAc, 302.15 K): 0.475
solubility (mole fraction) (in DMAc, 308.65 K): 0.483
solubility (mole fraction) (in DMAc, 311.65 K): 0.489
solubility (mole fraction) (in DMAc, 315.15 K): 0.496
solubility (mole fraction) (in DMAc, 318.15 K): 0.505
solubility (mole fraction) (in DMAc, 320.65 K): 0.515
solubility (mole fraction) (in DMAc, 324.15 K): 0.529
solubility (mole fraction) (in DMAc, 329.15 K): 0.548
solubility (mole fraction) (in cyclohexanone, 286.15 K): 0.174
solubility (mole fraction) (in cyclohexanone, 288.95 K): 0.181
solubility (mole fraction) (in cyclohexanone, 294.15 K): 0.197
solubility (mole fraction) (in cyclohexanone, 299.15 K): 0.221
solubility (mole fraction) (in cyclohexanone, 303.65 K): 0.242
solubility (mole fraction) (in cyclohexanone, 307.95 K): 0.265
solubility (mole fraction) (in cyclohexanone, 316.15 K): 0.29
solubility (mole fraction) (in cyclohexanone, 319.15 K): 0.315
solubility (mole fraction) (in cyclohexanone, 322.15 K): 0.337
solubility (mole fraction) (in cyclohexanone, 326.15 K): 0.362
solubility (mole fraction) (in decalin, 296.15 K): 0.0147
solubility (mole fraction) (in decalin, 301.15 K): 0.0163
solubility (mole fraction) (in decalin, 306.25 K): 0.0196
solubility (mole fraction) (in decalin, 311.05 K): 0.0249
solubility (mole fraction) (in decalin, 318.05 K): 0.0355
solubility (mole fraction) (in decalin, 325.15 K): 0.0495
solubility (mole fraction) (in decalin, 329.25 K): 0.0589
solubility (mole fraction) (in decalin, 332.55 K): 0.0687
solubility (mole fraction) (in decalin, 337.05 K): 0.0887
solubility (mole fraction) (in decalin, 338.65 K): 0.103
solubility (mole fraction) (in diethylene glycol, 294.15 K): 0.0746
solubility (mole fraction) (in diethylene glycol, 298.15 K): 0.0995
solubility (mole fraction) (in diethylene glycol, 302.35 K): 0.131
solubility (mole fraction) (in diethylene glycol, 305.15 K): 0.148
solubility (mole fraction) (in diethylene glycol, 309.35 K): 0.183
solubility (mole fraction) (in diethylene glycol, 314.65 K): 0.225
solubility (mole fraction) (in diethylene glycol, 319.95 K): 0.269
solubility (mole fraction) (in diethylene glycol, 324.15 K): 0.3
solubility (mole fraction) (in diethylene glycol, 327.95 K): 0.336
solubility (mole fraction) (in diethylene glycol, 332.25 K): 0.367
solubility (mole fraction) (in ethylene glycol, 291.65 K): 0.0449
solubility (mole fraction) (in ethylene glycol, 298.15 K): 0.0539
solubility (mole fraction) (in ethylene glycol, 300.95 K): 0.0604
solubility (mole fraction) (in ethylene glycol, 303.15 K): 0.0689
solubility (mole fraction) (in ethylene glycol, 306.65 K): 0.0823
solubility (mole fraction) (in ethylene glycol, 310.15 K): 0.097
solubility (mole fraction) (in ethylene glycol, 314.15 K): 0.112
solubility (mole fraction) (in ethylene glycol, 320.15 K): 0.14
solubility (mole fraction) (in ethylene glycol, 324.15 K): 0.155
solubility (mole fraction) (in ethylene glycol, 330.65 K): 0.185
solubility (mole fraction) (in m-xylene, 296.15 K): 0.0649
solubility (mole fraction) (in m-xylene, 302.15 K): 0.0823
solubility (mole fraction) (in m-xylene, 306.15 K): 0.0928
solubility (mole fraction) (in m-xylene, 312.65 K): 0.117
solubility (mole fraction) (in m-xylene, 315.15 K): 0.129
solubility (mole fraction) (in m-xylene, 320.15 K): 0.154
solubility (mole fraction) (in m-xylene, 323.15 K): 0.173
solubility (mole fraction) (in m-xylene, 330.65 K): 0.22
solubility (mole fraction) (in m-xylene, 334.15 K): 0.246
solubility (mole fraction) (in m-xylene, 336.15 K): 0.257
solubility (mole fraction) (in n-octane, 313.15 K): 0.024
solubility (mole fraction) (in n-octane, 322.35 K): 0.033
solubility (mole fraction) (in n-octane, 325.15 K): 0.0365
solubility (mole fraction) (in n-octane, 329.15 K): 0.0448
solubility (mole fraction) (in n-octane, 334.15 K): 0.0578
solubility (mole fraction) (in n-octane, 338.35 K): 0.0718
solubility (mole fraction) (in n-octane, 342.65 K): 0.0865
solubility (mole fraction) (in n-octane, 345.15 K): 0.0955
solubility (mole fraction) (in n-octane, 348.15 K): 0.11
solubility (mole fraction) (in n-octane, 354.15 K): 0.134
solubility (mole fraction) (in o-xylene, 297.15 K): 0.0655
solubility (mole fraction) (in o-xylene, 300.15 K): 0.0735
solubility (mole fraction) (in o-xylene, 303.15 K): 0.0853
solubility (mole fraction) (in o-xylene, 308.65 K): 0.101
solubility (mole fraction) (in o-xylene, 311.15 K): 0.115
solubility (mole fraction) (in o-xylene, 316.15 K): 0.139
solubility (mole fraction) (in o-xylene, 321.15 K): 0.162
solubility (mole fraction) (in o-xylene, 325.15 K): 0.189
solubility (mole fraction) (in o-xylene, 332.15 K): 0.218
solubility (mole fraction) (in o-xylene, 334.15 K): 0.239
solubility (mole fraction) (in p-xylene, 295.15 K): 0.0628
solubility (mole fraction) (in p-xylene, 299.65 K): 0.0743
solubility (mole fraction) (in p-xylene, 302.15 K): 0.0819
solubility (mole fraction) (in p-xylene, 307.15 K): 0.0953
solubility (mole fraction) (in p-xylene, 311.45 K): 0.115
solubility (mole fraction) (in p-xylene, 320.65 K): 0.148
solubility (mole fraction) (in p-xylene, 323.15 K): 0.169
solubility (mole fraction) (in p-xylene, 326.95 K): 0.191
solubility (mole fraction) (in p-xylene, 331.15 K): 0.218
solubility (mole fraction) (in p-xylene, 335.15 K): 0.244
solubility (mole fraction) (in propionic acid, 291.15 K): 0.146
solubility (mole fraction) (in propionic acid, 294.65 K): 0.149
solubility (mole fraction) (in propionic acid, 300.15 K): 0.171
solubility (mole fraction) (in propionic acid, 304.45 K): 0.19
solubility (mole fraction) (in propionic acid, 308.15 K): 0.213
solubility (mole fraction) (in propionic acid, 314.15 K): 0.235
solubility (mole fraction) (in propionic acid, 317.15 K): 0.251
solubility (mole fraction) (in propionic acid, 322.15 K): 0.271
solubility (mole fraction) (in propionic acid, 325.15 K): 0.293
solubility (mole fraction) (in propionic acid, 330.15 K): 0.332
solubility (mole fraction) (in sulfolane, 305.15 K): 0.122
solubility (mole fraction) (in sulfolane, 312.15 K): 0.132
solubility (mole fraction) (in sulfolane, 314.15 K): 0.138
solubility (mole fraction) (in sulfolane, 318.65 K): 0.156
solubility (mole fraction) (in sulfolane, 325.15 K): 0.192
solubility (mole fraction) (in sulfolane, 329.15 K): 0.216
solubility (mole fraction) (in sulfolane, 333.65 K): 0.245
solubility (mole fraction) (in sulfolane, 338.15 K): 0.282
solubility (mole fraction) (in sulfolane, 343.15 K): 0.315
solubility (mole fraction) (in sulfolane, 345.15 K): 0.33
